One block for each molecule: values may come before it.
Experiments:
[1] = system: proteins in HEK293T cells; experiment: Gel-based profiling of FFF probe-protein labeling in cells; assay type: binding, human; conditions: 20 μM, 30 min, UV
Procedure: (§1) For gel-based experiments, cells were grown in 6-well plates to ˜90% confluence at the time of treatment. Cells were carefully washed with Dulbecco's phosphate buffered saline (DPBS) and replenished with fresh serum-free media containing indicated FFF probe, and, if applicable, competitors or DMSO vehicle (1 mL). Following incubation at 37° C. for 30 min, cells were directly exposed to 365 nm light for 10 min. For no UV experiments, cells were incubated at 4° C. for 10 min under ambient light. For MS-based experiments, cell labeling was performed in a similar manner as described above. Modifications to this protocol included using isotopically ‘light’ and ‘heavy’ SILAC cells that were grown to near complete confluence prior to treatment in 10 cm plates. […]
(§2) Cells pellets were lysed in cold DPBS (100-500 µL) using a Branson Sonifier probe sonicator (10 pulses, 30% duty cycle, output setting=4). […] Protein concentration was determined using the DC Protein Assay (Bio-Rad) and absorbance read using a Tecan, Infinite F500 plate reader following manufacturer's instructions. […]
(§3) Proteomes from treated cells were diluted to 1 mg/mL. […] Proteins (25 µg total protein loaded per gel lane) were resolved using SDS-PAGE (10% acrylamide) and visualized by in-gel fluorescence on a Hitachi FMBIO-II or a Bio-Rad ChemiDoc™ MP flatbed fluorescence scanner. […]

PTGR2 [2] = molecular target: T1, PTGR2 (Homo sapiens, UniProt Q8N8N7); experiment: PPARγ luciferase reporter assay in PTGR2-transfected HEK293T cells (15-keto-PGE2-dependent); assay type: cell-based; conditions: cells recombinantly expressing PTGR2
T1 sequence (Q8N8N7 whole entry, the tested form may be a part): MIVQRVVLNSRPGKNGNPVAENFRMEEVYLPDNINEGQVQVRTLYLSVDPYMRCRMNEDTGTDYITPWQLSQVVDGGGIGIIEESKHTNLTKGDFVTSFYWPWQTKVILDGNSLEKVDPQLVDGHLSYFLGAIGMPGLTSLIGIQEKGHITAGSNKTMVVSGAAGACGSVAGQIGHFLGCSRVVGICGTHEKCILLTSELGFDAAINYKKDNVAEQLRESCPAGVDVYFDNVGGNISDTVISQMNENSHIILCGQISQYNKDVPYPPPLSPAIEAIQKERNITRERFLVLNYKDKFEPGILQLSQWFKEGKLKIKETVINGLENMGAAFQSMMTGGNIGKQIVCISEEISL
Procedure: (§4) HEK293T cells were transiently co-transfected using Polyethylenimine (Sigma) with a UAS-Luciferase reporter and a vector expressing the heterologous GAL4 DNA binding domain (DBD) or a GAL4 DNA binding domain::PPARγ ligand binding domain (LBD) chimeric protein, and full-length PTGR2. 24 hr after transfection, cells were treated either with vehicle (DMSO), 15k-PGE2 (20 μM), or fragment compounds. Rosiglitazone (2 μM), a synthetic PPARγ ligand, was used as control. 16 hr after incubation, cells were lysed in Cell Culture Lysis Reagent (Promega) and luciferase activity measured using the Luciferase Assay System (Promega).

PTGR2 [3] = molecular target: T1, PTGR2; experiment: Gel-based competitor blockade of FFF 8 labeling of recombinantly expressed FLAG-tagged PTGR2 in HEK293T cells; assay type: binding
Procedure: as §1, §2, §3

PTGR2 [4] = molecular target: T1, PTGR2; experiment: In vitro LCMS-based activity assay for PTGR2 (15-keto-PGE2 reductase activity); assay type: biochemical
Procedure: Aliquots (1 μL) of test compounds dissolved in DMSO were transferred to 1.5 mL eppendorf tubes followed by addition of recombinant human PTGR2 (44 μL, 200 nM final concentration) in freshly prepared reaction buffer (Tris Buffer, 1 mM EDTA, 50 μM TCEP, 300 μM NADPH). The resulting mixture was vortexed and then incubated at 37° C. for 20 min. Next, a 5 μL solution of 15-keto-PGE2 substrate (20 μM final concentration) in reaction buffer was added and the reaction was allowed to proceed for 30 min at 37° C. Reactions were quenched by the addition of 0.5% AcOH in ethyl acetate (800 μL), water (300 μL) and 100 μL of internal standard PGE2-d4 (30 pmol/sample) dissolved in 1:1 methanol/water. Phases were separated by centrifugation and the organic layer was collected and dried under a stream of N2, then stored at −80° C. until analysis. Directly prior to analysis, samples were reconstituted in 100 μL of MeCN:H2O (1:1, v/v) and analyzed by LC/MS/MS. All conditions were performed in triplicate and repeated at least three independent times.
The following MS parameters were used to measure the indicated metabolites by MRM (precursor ion, product ion, collision energy, polarity): PGE2-d4 (355, 275, 18), 13,14-dihydro-15-keto-PGE2 (351, 333, 18) and 15-keto-PGE2 (349, 161, 20). 15-keto-PGE2 and 13,14-dihydro-15-keto-PGE2 levels were quantified by determining peak areas in relation to internal standard PGE2-d4. Non-deuterated 15-keto-PGE2 and 13,14-dihydro-15-keto-PGE2 standards were used to confirm retention time and fragmentation.
All data fitting and statistical analysis performed using GraphPad Prism version 6.00 for Windows, GraphPad Software, La Jolla Calif. USA, www.graphpad.com. Statistical values including the exact n and statistical significance are also reported. Probe binding blockade and PTGR2 inhibition curves are plotted as mean±SD (n=3 or 4 per group) for a representative biological replicate using a variable slope (four parameter) non-linear fit. Gene expression data are presented as mean±SD (n=3 per group). HSC5 metabolite data are shown as mean±SD (n=3 per group). Statistical significance was defined as P<0.05 and determined by 2-tailed Student t tests, or two-way ANOVA with Bonferroni's post-tests.

PPARγ = molecular target: T2, PPARγ (Homo sapiens, UniProt P37231); experiment: GAL4-PPARγ luciferase reporter assay with empty control vector in HEK293T cells; assay type: cell-based; conditions: GAL4-PPARγ luciferase reporter and empty control vector
T2 construct: expressed in transfected cells; host or cells: HEK293T
T2 sequence (P37231 238-503 limits assumed): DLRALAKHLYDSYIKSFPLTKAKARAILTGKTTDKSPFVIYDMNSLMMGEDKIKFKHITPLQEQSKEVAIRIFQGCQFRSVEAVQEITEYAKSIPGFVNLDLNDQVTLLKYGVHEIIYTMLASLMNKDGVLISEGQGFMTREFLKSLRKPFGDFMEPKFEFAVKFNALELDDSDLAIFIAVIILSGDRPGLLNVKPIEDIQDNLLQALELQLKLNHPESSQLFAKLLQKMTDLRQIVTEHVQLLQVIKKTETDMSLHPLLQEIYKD
Procedure: as §4

PTGR2 [5] = molecular target: T1, PTGR2; conditions: only reported inhibitor of PTGR2; read-out: in vitro IC50 (PTGR2); cited from earlier work

SMILES: C#CCCC1(CCC(=O)NC)N=N1 [probe 1, 3-(3-(But-3-yn-1-yl)-3H-diazirin-3-yl)-N-methylpropanamide]
protein labeling in HEK293T cells (in-gel fluorescence) [1]: much less protein labeling

15-keto-PGE2-dependent PPARγ transcriptional activity (PTGR2 [2]): no effect
competitor blockade of FFF 8 labeling of recombinant PTGR2 (gel) (PTGR2 [3]): did not affect
effect on 15-keto-PGE2 reductase (catalytic) activity of recombinant PTGR2 (PTGR2 [4]): did not affect
direct modulation of PPARγ transcriptional activity (PPARγ): Neither 22 nor 23 directly modulated
SMILES: COc1ccccc1C1CCN(S(=O)(=O)Cc2ccccc2)CC1 [Compound 23, 1-(Benzylsulfonyl)-4-(2-methoxyphenyl)piperidine]

SMILES: COc1ccc2c(c1)c(CC(=O)O)c(C)n2C(=O)c1ccc(Cl)cc1 [indomethacin]
IC50 (PTGR2 [5]): ~200 µM

— patent publication US11535597B2, “Photoreactive ligands and uses thereof” (The Scripps Research Institute, priority 2017, dated 2022)
